Laboratory results: ChEMBL document CHEMBL4507268 (2021)

Legend:
[1] = target: 5-hydroxytryptamine receptor 2A (Homo sapiens) (UniProt P28223); conditions: Compound concentration 10.0 uM
[2] = target: Mitogen-activated protein kinase 6 (Homo sapiens) (UniProt Q16659); conditions: Compound concentration 1000.0 nM
[3] = target: Calcium/calmodulin-dependent protein kinase kinase 2 (Homo sapiens) (UniProt Q96RR4); conditions: Compound concentration 1000.0 nM
[4] = target: T1, Serine/threonine-protein kinase Sgk2 (Homo sapiens) (UniProt Q9HBY8); conditions: Compound concentration 1000.0 nM
T1 sequence (whole entry): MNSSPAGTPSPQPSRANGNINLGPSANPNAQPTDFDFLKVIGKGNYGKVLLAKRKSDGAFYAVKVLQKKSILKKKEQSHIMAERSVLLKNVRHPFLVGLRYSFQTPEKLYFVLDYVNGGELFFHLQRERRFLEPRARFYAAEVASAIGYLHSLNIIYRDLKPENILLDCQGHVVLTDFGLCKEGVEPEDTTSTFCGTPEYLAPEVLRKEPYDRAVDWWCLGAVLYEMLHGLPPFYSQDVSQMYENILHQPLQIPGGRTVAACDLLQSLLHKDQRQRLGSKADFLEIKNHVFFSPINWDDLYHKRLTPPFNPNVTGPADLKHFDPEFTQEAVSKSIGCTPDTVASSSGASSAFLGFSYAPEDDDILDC

[5] = target: Activin receptor type-1-like (Homo sapiens) (UniProt P37023); conditions: Compound concentration 1000.0 nM
Chain of Activin receptor type-1-like (Homo sapiens) (P37023 whole entry): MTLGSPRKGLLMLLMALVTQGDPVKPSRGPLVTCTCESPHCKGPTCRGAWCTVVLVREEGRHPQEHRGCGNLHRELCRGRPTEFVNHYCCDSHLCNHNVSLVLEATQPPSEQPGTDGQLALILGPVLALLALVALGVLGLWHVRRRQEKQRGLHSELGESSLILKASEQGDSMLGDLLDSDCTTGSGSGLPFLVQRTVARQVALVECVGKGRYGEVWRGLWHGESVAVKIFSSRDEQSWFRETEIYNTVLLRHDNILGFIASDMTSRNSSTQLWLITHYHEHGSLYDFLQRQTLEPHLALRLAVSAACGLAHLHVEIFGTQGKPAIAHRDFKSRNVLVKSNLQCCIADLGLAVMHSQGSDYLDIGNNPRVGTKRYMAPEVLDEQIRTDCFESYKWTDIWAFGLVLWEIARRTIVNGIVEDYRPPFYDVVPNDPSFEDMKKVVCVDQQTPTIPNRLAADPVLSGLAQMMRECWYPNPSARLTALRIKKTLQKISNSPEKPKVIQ

[6] = system: SN12C; test: Proliferation assay: SN12C (renal cell carcinoma); format: functional, cell-based; conditions: Homo sapiens
[7] = target: Proto-oncogene tyrosine-protein kinase Src (Homo sapiens) (UniProt P12931); conditions: Compound concentration 1000.0 nM
[8] = target: Bone morphogenetic protein receptor type-1B (Homo sapiens) (UniProt O00238); conditions: Compound concentration 1000.0 nM
[9] = target: T2, MAP kinase-activated protein kinase 5 (Homo sapiens) (UniProt Q8IW41); conditions: Compound concentration 1000.0 nM
T2 sequence (whole entry): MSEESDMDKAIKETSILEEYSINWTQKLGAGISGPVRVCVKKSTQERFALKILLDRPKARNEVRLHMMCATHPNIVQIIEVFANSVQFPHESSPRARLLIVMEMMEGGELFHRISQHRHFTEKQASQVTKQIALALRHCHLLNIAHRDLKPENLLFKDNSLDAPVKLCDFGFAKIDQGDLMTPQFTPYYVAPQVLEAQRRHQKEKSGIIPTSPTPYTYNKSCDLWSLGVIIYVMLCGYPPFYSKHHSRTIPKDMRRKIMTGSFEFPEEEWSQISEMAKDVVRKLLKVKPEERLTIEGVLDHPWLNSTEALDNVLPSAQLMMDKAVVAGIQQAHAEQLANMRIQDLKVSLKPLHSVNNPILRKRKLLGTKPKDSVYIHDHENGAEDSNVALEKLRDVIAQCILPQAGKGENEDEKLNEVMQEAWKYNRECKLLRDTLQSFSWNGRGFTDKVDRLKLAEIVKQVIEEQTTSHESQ

[10] = target: Mitogen-activated protein kinase kinase kinase 14 (Homo sapiens) (UniProt Q99558); conditions: Compound concentration 1000.0 nM
[11] = target: Dual specificity protein kinase CLK4 (Homo sapiens) (UniProt Q9HAZ1); conditions: Compound concentration 1000.0 nM
Chain of Dual specificity protein kinase CLK4 (Homo sapiens) (Q9HAZ1 whole entry, looked up): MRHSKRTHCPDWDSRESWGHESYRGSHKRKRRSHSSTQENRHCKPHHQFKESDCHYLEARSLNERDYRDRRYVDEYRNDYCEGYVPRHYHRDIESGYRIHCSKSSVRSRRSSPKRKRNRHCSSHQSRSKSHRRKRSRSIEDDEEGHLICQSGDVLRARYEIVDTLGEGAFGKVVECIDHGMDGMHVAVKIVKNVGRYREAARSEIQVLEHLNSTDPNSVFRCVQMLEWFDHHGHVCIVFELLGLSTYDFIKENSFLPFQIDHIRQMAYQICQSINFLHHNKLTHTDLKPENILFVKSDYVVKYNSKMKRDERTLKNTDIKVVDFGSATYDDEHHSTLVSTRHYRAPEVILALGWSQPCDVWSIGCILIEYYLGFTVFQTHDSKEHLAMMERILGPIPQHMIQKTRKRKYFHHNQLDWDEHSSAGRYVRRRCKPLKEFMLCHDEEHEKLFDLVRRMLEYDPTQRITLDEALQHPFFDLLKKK

[12] = target: Alpha-2A adrenergic receptor (Homo sapiens) (UniProt P08913); conditions: Compound concentration 10.0 uM
[13] = target: Macrophage colony-stimulating factor 1 receptor (Homo sapiens) (UniProt P07333); conditions: Compound concentration 1000.0 nM
Chain of Macrophage colony-stimulating factor 1 receptor (Homo sapiens) (P07333 whole entry): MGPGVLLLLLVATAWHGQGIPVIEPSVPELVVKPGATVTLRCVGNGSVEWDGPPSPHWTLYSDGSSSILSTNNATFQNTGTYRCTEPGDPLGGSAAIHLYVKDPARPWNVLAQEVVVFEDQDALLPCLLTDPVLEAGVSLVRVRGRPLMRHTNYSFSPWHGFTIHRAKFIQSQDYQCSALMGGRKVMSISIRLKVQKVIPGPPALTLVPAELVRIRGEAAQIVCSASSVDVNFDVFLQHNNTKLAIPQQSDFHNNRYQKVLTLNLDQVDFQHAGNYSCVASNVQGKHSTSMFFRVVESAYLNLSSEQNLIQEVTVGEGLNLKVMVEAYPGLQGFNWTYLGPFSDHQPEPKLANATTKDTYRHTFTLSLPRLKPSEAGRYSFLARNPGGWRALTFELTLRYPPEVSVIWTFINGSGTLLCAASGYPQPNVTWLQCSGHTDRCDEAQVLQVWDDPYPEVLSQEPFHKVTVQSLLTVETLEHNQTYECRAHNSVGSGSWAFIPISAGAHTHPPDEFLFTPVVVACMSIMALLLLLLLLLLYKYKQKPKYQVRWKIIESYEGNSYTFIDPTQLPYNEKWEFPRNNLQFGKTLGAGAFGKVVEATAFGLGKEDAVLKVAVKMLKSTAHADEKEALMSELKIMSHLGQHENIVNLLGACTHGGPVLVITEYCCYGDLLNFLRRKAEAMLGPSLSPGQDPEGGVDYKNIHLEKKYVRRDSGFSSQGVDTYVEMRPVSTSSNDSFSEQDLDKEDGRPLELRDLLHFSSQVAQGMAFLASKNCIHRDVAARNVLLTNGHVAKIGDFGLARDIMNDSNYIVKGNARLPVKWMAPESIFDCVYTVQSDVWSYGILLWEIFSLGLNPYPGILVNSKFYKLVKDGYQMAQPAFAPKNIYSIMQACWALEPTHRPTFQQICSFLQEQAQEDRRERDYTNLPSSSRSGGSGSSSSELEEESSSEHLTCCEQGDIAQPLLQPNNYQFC

[14] = target: Serine/threonine-protein kinase pim-3 (Homo sapiens) (UniProt Q86V86); conditions: Compound concentration 1000.0 nM
[15] = target: T3, Serine/threonine-protein kinase MAK (Homo sapiens) (UniProt P20794); conditions: Compound concentration 1000.0 nM
T3 sequence (whole entry): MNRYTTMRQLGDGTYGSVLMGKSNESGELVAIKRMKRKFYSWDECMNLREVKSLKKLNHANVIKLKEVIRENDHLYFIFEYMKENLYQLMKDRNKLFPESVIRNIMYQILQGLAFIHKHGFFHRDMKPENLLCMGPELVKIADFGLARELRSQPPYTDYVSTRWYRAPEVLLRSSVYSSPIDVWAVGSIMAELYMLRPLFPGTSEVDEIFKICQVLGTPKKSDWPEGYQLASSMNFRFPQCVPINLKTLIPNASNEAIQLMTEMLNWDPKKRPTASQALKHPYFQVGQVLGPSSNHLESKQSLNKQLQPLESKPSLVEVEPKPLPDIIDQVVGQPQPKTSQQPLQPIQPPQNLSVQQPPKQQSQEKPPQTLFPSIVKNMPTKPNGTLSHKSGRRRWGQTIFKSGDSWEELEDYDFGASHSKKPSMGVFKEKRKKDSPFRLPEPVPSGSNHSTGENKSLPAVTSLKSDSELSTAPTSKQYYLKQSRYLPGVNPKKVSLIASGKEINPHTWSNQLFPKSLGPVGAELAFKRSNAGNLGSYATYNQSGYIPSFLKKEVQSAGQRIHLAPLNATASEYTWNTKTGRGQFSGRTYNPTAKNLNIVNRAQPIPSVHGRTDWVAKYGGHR

[16] = target: T4, Dual specificity mitogen-activated protein kinase kinase 3 (Homo sapiens) (UniProt P46734); conditions: Compound concentration 1000.0 nM
T4 sequence (whole entry): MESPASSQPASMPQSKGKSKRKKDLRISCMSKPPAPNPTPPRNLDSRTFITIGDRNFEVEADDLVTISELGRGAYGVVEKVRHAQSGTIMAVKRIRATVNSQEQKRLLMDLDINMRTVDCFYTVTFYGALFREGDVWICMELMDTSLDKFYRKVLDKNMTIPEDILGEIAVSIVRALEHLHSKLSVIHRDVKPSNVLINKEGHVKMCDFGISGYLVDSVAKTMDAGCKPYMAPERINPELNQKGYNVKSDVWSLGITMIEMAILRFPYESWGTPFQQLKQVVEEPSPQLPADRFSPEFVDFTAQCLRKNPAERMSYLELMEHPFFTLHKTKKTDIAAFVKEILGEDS

[17] = target: Serine/threonine-protein kinase PAK 3 (Homo sapiens) (UniProt O75914); conditions: Compound concentration 1000.0 nM
Chain of Serine/threonine-protein kinase PAK 3 (Homo sapiens) (O75914 whole entry, looked up): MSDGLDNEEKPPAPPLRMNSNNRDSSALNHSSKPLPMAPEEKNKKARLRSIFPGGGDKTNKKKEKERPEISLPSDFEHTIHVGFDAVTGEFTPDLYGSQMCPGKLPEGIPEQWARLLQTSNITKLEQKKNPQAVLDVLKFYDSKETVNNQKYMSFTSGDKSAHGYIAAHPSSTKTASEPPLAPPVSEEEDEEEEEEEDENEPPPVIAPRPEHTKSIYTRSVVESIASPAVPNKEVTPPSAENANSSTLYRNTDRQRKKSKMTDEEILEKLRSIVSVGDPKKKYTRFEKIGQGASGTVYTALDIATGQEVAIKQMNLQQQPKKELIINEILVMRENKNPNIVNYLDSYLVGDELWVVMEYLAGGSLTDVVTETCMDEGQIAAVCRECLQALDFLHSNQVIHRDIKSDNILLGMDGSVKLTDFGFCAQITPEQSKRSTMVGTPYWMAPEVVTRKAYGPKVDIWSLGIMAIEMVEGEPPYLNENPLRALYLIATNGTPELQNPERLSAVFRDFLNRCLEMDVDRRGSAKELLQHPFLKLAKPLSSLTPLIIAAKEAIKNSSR

[18] = target: Cyclin-dependent kinase-like 5 (Homo sapiens) (UniProt O76039); conditions: Compound concentration 1000.0 nM
[19] = target: MAP/microtubule affinity-regulating kinase 3 (Homo sapiens) (UniProt P27448); conditions: Compound concentration 1000.0 nM
Chain of MAP/microtubule affinity-regulating kinase 3 (Homo sapiens) (P27448 whole entry, looked up, canonical isoform): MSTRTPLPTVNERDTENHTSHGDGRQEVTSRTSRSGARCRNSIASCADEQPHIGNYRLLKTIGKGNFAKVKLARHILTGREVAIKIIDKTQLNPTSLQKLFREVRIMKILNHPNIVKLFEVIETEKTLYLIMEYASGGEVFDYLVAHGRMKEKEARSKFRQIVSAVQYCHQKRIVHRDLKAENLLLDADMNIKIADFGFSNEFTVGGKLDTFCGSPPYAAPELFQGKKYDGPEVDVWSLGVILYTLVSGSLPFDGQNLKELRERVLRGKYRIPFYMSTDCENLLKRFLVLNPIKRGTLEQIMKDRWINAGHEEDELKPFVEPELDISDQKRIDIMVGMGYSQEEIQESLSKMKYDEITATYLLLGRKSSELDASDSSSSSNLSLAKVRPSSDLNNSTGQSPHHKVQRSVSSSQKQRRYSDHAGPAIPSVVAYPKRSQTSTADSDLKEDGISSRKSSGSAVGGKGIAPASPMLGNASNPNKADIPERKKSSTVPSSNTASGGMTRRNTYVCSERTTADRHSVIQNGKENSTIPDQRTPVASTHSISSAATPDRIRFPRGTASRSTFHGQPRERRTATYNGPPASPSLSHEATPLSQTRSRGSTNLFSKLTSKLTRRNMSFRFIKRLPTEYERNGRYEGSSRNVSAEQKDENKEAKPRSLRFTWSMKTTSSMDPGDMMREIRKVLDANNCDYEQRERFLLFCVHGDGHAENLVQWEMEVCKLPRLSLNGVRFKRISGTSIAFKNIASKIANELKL

[20] = system: Phosphatidylinositol 4,5-bisphosphate 3-kinase catalytic subunit alpha isoform (Homo sapiens), P42336 [H1047Y]; conditions: Compound concentration 1000.0 nM

Chain of Calcium/calmodulin-dependent protein kinase kinase 2 (Homo sapiens) (Q96RR4 2-588 limits assumed): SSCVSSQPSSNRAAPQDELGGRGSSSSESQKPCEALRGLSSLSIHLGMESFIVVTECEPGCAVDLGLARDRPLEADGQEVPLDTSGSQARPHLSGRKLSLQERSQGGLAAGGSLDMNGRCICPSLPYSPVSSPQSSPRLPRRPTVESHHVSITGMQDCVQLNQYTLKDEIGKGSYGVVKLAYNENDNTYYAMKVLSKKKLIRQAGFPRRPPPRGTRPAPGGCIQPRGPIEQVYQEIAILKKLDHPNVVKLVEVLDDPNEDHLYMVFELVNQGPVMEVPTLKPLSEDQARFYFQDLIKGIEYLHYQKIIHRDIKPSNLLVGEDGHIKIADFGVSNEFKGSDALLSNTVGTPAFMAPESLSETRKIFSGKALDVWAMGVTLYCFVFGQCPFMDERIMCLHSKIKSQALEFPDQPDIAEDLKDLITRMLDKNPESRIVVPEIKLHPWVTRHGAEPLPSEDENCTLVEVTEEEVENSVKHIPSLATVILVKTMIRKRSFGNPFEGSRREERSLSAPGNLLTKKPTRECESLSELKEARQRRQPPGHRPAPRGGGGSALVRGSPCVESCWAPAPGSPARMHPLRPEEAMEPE
Chain of Mitogen-activated protein kinase 6 (Homo sapiens) (Q16659 whole entry): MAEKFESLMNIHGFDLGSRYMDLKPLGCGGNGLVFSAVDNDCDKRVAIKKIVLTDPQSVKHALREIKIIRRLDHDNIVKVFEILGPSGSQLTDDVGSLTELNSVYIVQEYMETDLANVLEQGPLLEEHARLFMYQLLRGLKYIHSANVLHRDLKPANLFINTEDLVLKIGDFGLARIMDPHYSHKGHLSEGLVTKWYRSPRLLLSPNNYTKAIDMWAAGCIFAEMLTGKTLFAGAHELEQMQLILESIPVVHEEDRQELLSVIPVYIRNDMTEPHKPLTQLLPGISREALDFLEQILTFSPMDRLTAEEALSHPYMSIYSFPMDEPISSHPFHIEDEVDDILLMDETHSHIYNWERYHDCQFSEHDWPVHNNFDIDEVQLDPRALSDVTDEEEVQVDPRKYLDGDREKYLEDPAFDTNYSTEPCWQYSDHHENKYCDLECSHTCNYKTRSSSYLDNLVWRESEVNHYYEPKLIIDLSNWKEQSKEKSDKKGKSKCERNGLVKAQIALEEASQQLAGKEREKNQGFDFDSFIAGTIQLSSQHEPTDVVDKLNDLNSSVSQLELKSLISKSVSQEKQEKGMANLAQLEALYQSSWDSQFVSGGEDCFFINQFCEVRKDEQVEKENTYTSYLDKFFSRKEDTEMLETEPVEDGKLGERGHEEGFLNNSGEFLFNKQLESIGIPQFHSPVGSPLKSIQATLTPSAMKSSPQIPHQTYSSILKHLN

SMILES | inhibition [1] [%] | residual activity [2] [%] | residual activity [3] [%] | residual activity [4] [%] | residual activity [5] [%] | IC50 [6] | residual activity [7] [%] | residual activity [8] [%] | residual activity [9] [%] | residual activity [10] [%] | residual activity [11] [%] | inhibition [12] [%] | residual activity [13] [%] | residual activity [14] [%] | residual activity [15] [%] | residual activity [16] [%] | residual activity [17] [%] | residual activity [18] [%] | residual activity [19] [%] | residual activity [20] [%]
Cc1nc(C2CCN(C(=O)c3ccc(OC(F)(F)F)cc3N)CC2)c2ncc(N3CCN(C)CC3)cc2n1 [BAY-693] | 4.68 | 100 | 100 | 94 | 91 | 29.3 µM (not active) | 99 | 93 | 94 | 100 | 97 | -6.02 | 94 | 100 | 99 | 98 | 100 | 89 | 89 | 69
CN1CCN(c2cnc3c(C4CCN(C(=O)c5ccc(OC(F)(F)F)cc5N)CC4)ncnc3c2)CC1 [BAY-885] | 4.33 | 100 | 100 | 92 | 94 | > 30 µM (not active) | 100 | 100 | 100 | 100 | 98 | -3.41 | 92 | 100 | 100 | 94 | 88 | 93 | 93 | 92
